# Reference: patent US20260176267A1, “PREPARATION OF IMIDAZOPYRIDINE AND IMIDAZOPYRIDAZINE DERIVATIVES AS NOVEL DIACYLGLYCERIDE O-ACYLTRANSFERASE 2 INHIBITORS” (Merck Sharp & Dohme LLC, priority 2022, published 2026)
# Biological target: T1, human DGAT2 (hDGAT2) (Homo sapiens, UniProt Q96PD7)
# T1 construct: made in house; host or cells: Sf-9 insect cells (baculovirus), membrane fraction
# T1 sequence (Q96PD7 1-388): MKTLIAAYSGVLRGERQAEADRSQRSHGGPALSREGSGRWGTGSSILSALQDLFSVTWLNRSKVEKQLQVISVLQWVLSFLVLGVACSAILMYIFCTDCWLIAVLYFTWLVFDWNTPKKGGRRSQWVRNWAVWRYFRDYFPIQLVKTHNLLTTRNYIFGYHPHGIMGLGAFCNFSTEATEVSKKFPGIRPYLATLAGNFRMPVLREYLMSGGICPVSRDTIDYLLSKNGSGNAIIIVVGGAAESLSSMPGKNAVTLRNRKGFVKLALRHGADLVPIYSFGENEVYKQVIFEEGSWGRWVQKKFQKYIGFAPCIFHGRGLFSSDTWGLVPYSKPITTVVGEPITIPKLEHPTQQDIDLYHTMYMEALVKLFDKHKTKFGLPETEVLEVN
# Assay: DGAT2 Enzymatic Activity Assay
# Format: biochemical
# Conditions: membrane prep of Sf-9 cells expressing hDGAT2; 13C18-triolein product by LC/MS/MS; 25 μM diolein, 5 μM 13C oleoyl-CoA, rt
# How it was run: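 At room temperature, DGAT2 activity in baculovirus-infected Sf-9 membrane preps (human enzyme, untagged) is measured as formation of ^13C18-triolein. Product is extracted and measured by positive-mode LC/MS/MS, with the ratio to spiked ^13C21-triolein giving inhibition and IC50.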
row,SMILES,IC50
1,"Cc1c(C(=O)NC2(C)CCS(=O)(=O)CC2)nc2ccc(OCc3ncccc3OCC(F)(F)F)cn12 [Example 123, 3-methyl-N-(4-methyl-1,1-dioxo-thian-4-yl)-6-[[3-(2,2,2-trifluoroethoxy)-2-pyridyl]methoxy]imidazo[1,2-a]pyridine-2-carboxamide]",93 nM
2,"Cc1c(C(=O)NC2(C)CCS(=O)(=O)CC2)nc2ccc(OCc3ccc(F)cc3)cn12 [Example 126, 6-[(4-fluorophenyl)methoxy]-3-methyl-N-(4-methyl-1,1-dioxo-thian-4-yl)imidazo[1,2-a]pyridine-2-carboxamide]",465 nM
3,"Cc1c(C(=O)NC2(C)CCS(=O)(=O)CC2)nc2ccc(OCc3ccccc3OC(F)F)cn12 [Example 127, 6-[[2-(difluoromethoxy)phenyl]methoxy]-3-methyl-N-(4-methyl-1,1-dioxo-thian-4-yl)imidazo[1,2-a]pyridine-2-carboxamide]",6.5 nM
4,"Cc1c(C(=O)NC2(C)CCS(=O)(=O)CC2)nc2ccc(OCCC(F)(F)F)cn12 [Example 128, 3-methyl-N-(4-methyl-1,1-dioxo-thian-4-yl)-6-(3,3,3-trifluoropropoxy)imidazo[1,2-a]pyridine-2-carboxamide]",> 9990 nM
5,"CCOCC(C)(C)COc1ccc2nc(C(=O)NC3(C)CCS(=O)(=O)CC3)c(C)n2c1 [Example 129, 6-(3-ethoxy-2,2-dimethyl-propoxy)-3-methyl-N-(4-methyl-1,1-dioxo-thian-4-yl)imidazo[1,2-a]pyridine-2-carboxamide]",161 nM
6,"CC1(NC(=O)c2nc3ccc(Oc4ncccc4OCC(F)(F)F)cn3c2O)CCS(=O)(=O)CC1 [Example 131, 3-hydroxy-N-(4-methyl-1,1-dioxo-thian-4-yl)-6-[[3-(2,2,2-trifluoroethoxy)-2-pyridyl]oxy]imidazo[1,2-a]pyridine-2-carboxamide]",34 nM
7,"CC1(NC(=O)c2nc3ccc(Oc4ncccc4OCC(F)(F)F)cn3c2C(=O)O)CCS(=O)(=O)CC1 [Example 132, 2-((4-methyl-1,1-dioxidotetrahydro-2H-thiopyran-4-yl)carbamoyl)-6-((3-(2,2,2-trifluoroethoxy)pyridin-2-yl)oxy)imidazo[1,2-a]pyridine-3-carboxylic acid]",> 9990 nM
8,"CC1(NC(=O)c2nc3ccc(Oc4ncccc4OCC(F)(F)F)cn3c2C(N)=O)CCS(=O)(=O)CC1 [Example 133, N2-(4-methyl-1,1-dioxo-thian-4-yl)-6-[[3-(2,2,2-trifluoroethoxy)-2-pyridyl]oxy-]imidazo[1,2-a]pyridine-2,3-dicarboxamide]",28 nM

# Now those with a lower IC50, led by results:
row,IC50,SMILES
1,6.2 nM,"COc1c(C(=O)NC2(C)CCS(=O)(=O)CC2)nc2ccc(Oc3ncccc3OCC(F)(F)F)cn12 [Example 134, 3-methoxy-N-(4-methyl-1,1-dioxo-thian-4-yl)-6-[[3-(2,2,2-trifluoroethoxy)-2-pyridyl]oxy]imidazo[1,2-a]pyridine-2-carboxamide]"
2,5.7 nM,"CCOc1ccccc1COc1ccc2nc(C(=O)NC3(C)CCS(=O)(=O)CC3)c(C)n2c1 [Example 124, 6-[(2-ethoxyphenyl)methoxy]-3-methyl-N-(4-methyl-1,1-dioxo-thian-4-yl)imidazo[1,2-a]pyridine-2-carboxamide]"
3,4.9 nM,"CCOc1cccnc1COc1ccc2nc(C(=O)NC3(C)CCS(=O)(=O)CC3)c(C)n2c1 [Example 125, 6-[(3-ethoxy-2-pyridyl)methoxy]-3-methyl-N-(4-methyl-1,1-dioxo-thian-4-yl)imidazo[1,2-a]pyridine-2-carboxamide]"
4,3.3 nM,"CC1(NC(=O)c2nc3ccc(Oc4ncccc4OCC(F)(F)F)cn3c2Cl)CCS(=O)(=O)CC1 [Example 130, 3-chloro-N-(4-methyl-1,1-dioxo-thian-4-yl)-6-[[3-(2,2,2-trifluoroethoxy)-2-pyridyl]oxy]imidazo[1,2-a]pyridine-2-carboxamide]"
